Calls of active or inactive are those of the source. The calls are words filed in the database; no cut-off is given here.
Experiments:
[1] = biological target: Sphingosine 1-phosphate receptor 1 (Homo sapiens) (UniProt P21453); experiment: Agonist activity at S1P receptor in human PC3 cells assessed as increase in proliferation at 100 nM after 24 hrs by [3H]-thymidine incorporation assay; format: cell-based; settings: PC-3
[2] = biological target: Sphingosine 1-phosphate receptor 1 (Homo sapiens) (UniProt P21453); experiment: Agonist activity at S1P receptor in human C4-2B cells assessed as increase in proliferation at 100 nM after 24 hrs by [3H]-thymidine incorporation assay; format: cell-based
[3] = Antiproliferative activity against human C4-2B cells assessed as reduction in proliferation after 24 hrs by [3H]-thymidine incorporation assay; format: functional, cell-based; settings: LNCaP C4-2B
LNCaP C4-2B = experiment: Antiproliferative activity against human C4-2B cells assessed as reduction in proliferation at 1 to 100 uM after 24 hrs by MTT assay; format: functional, cell-based
PC-3 = experiment: Antiproliferative activity against human PC3 cells assessed as reduction in proliferation at 1 to 10 uM after 24 hrs by MTT assay; format: functional, cell-based
[4] = Antiproliferative activity against human PC3 cells assessed as reduction in proliferation after 24 hrs by [3H]-thymidine incorporation assay; format: functional, cell-based; settings: PC-3

Sphingosine 1-phosphate receptor 1 (Homo sapiens), sequence (P21453 whole entry): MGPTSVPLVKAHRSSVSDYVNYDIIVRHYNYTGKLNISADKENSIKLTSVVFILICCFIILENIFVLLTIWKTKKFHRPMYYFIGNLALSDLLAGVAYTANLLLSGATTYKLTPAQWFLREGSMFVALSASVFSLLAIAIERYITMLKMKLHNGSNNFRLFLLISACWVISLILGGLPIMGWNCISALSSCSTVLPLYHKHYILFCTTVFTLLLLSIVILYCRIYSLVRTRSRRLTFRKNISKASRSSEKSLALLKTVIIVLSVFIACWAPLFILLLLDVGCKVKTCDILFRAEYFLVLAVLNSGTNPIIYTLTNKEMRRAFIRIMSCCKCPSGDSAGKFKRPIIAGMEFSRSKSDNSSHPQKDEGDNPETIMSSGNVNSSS

Row | SMILES | Activity [1] | Activity [2] | IC50 [3] | inhibition (LNCaP C4-2B) | inhibition (PC-3) | IC50 [4]
1 | CCCCCCCCCCCCC/C=C/[C@@H](O)[C@@H](N)COP(=O)(O)O | Active | Active |  |  |  | 
2 | CCCCCCCCc1ccc(CCC(N)CC(F)(F)P(=O)(O)O)cc1 (stereo not given) | inactive | inactive | 3 µM | Active | Active | 20 µM
3 | CCCCCCCCc1ccc(CCC(N)(CO)COP(=O)(O)O)cc1 (stereo not given) | Active | Active |  |  |  | 

From ChEMBL document CHEMBL3351815, “Synthesis of fluorinated agonist of sphingosine-1-phosphate receptor 1” (Bioorg Med Chem, 2014)
